The subject of one assay is GluN1/2A. The settings on record: cited from earlier work.
The test system of a further assay is GluN1/2B. The settings on record: cited from earlier work.
The test system of another assay is GluN1/2C. Particulars: cited from earlier work.
Another assay has as its system GluN1/2D. The settings on record: cited from earlier work.
Another assay addresses GluN1/2D NMDA receptor (Rattus norvegicus, UniProt P35439). It counts as cell-based.
For a further assay, the target named is GluN1/2B NMDA receptor (Rattus norvegicus, UniProt P35439). It counts as cell-based. The settings on record: for current response to analog alone at GluN1/2B: 10 μM analog, continuous presence of 300 μM L-Glu.
Assay [1] concerns the target Gly binding site in GluN1/2B receptors (Rattus norvegicus, UniProt P35439+Q00960). Briefly: Inhibition of Gly responses at recombinant GluN1/2B. In kind it is cell-based.
For the next assay, the target named is GluN1^FATL/3A receptors (Rattus norvegicus, UniProt Q9R1M7). Briefly: Two-electrode voltage-clamp at GluN1^FATL/3A receptors. In kind it is cell-based. Particulars: for activation of current responses at GluN1^FATL/3A: 10 μM analog alone; for inhibition of responses to Gly at GluN1^FATL/3A: 10 μM analog in presence of Gly. On the technique in general: In two-electrode clamp one electrode senses voltage and the other passes current.

A further assay deals with GluN1^FATL/3B receptors (Rattus norvegicus, UniProt Q8VHN2). Briefly: Two-electrode voltage-clamp at GluN1^FATL/3B receptors. It counts as cell-based. Particulars: for activation of current responses at GluN1^FATL/3B: 10 μM analog alone; for inhibition of responses to Gly at GluN1^FATL/3B: 10 μM analog in presence of Gly.
The next assay deals with GluN1/2A-V783L (Rattus norvegicus, UniProt P35439). Briefly: Two-electrode voltage-clamp at mutated GluN1/2A-V783L receptors. In kind it is cell-based. Particulars: 10 μM analog; 300 μM L-Glu.
A further assay deals with GluN1/2A NMDA receptor (Rattus norvegicus, UniProt P35439). It counts as cell-based.
For the next assay, the target named is GluN1/2B-F784V (Rattus norvegicus, UniProt P35439). Briefly: Two-electrode voltage-clamp at mutated GluN1/2B-F784V receptors. The settings on record: 10 μM analog; 300 μM L-Glu. It counts as cell-based.
The target in another assay is GluN1/2B-F784L (Rattus norvegicus, UniProt P35439). The experiment in a line: Two-electrode voltage-clamp at mutated GluN1/2B-F784L receptors. In kind it is cell-based. Particulars: 10 μM analog; 300 μM L-Glu.
The target in the next assay is GluN1/2A-V783F (Rattus norvegicus, UniProt P35439). The experiment in a line: Two-electrode voltage-clamp at mutated GluN1/2A-V783F receptors. It counts as cell-based. Particulars: 10 μM analog; 300 μM L-Glu.
Where [2] appears, read: maximal response compared to Gly.

Entries after “also recorded” stand apart in the source; their conditions may differ.

GluN1^FATL/3B receptors, sequence (Q8VHN2 25-1002, other chains not shown): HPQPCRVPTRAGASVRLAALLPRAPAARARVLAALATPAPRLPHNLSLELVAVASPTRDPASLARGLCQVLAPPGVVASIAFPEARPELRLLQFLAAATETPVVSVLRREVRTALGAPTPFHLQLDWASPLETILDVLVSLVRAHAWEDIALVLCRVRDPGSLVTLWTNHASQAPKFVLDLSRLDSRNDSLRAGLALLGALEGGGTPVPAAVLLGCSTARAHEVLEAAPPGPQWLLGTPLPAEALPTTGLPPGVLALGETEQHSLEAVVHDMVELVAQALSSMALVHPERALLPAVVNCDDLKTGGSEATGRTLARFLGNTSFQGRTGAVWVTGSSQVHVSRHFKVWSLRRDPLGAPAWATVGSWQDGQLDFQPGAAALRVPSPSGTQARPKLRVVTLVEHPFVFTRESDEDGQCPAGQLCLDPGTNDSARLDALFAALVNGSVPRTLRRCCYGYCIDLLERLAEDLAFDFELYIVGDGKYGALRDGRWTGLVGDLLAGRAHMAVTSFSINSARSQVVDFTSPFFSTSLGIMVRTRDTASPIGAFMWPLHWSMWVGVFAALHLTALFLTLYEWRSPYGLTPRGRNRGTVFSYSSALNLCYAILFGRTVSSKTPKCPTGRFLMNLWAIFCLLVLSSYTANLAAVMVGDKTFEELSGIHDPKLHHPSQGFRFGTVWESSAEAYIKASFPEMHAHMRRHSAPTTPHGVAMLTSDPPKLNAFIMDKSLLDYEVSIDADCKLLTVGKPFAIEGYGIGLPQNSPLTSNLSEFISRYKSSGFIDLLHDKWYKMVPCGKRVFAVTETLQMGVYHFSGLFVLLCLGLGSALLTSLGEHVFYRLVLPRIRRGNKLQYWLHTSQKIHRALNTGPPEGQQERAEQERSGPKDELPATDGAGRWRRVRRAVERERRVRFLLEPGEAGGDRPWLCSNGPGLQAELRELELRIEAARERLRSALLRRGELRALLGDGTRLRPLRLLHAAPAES
GluN1^FATL/3A receptors, sequence (Q9R1M7 24-1115 isoform Q9R1M7-2 limits assumed, other chains not shown): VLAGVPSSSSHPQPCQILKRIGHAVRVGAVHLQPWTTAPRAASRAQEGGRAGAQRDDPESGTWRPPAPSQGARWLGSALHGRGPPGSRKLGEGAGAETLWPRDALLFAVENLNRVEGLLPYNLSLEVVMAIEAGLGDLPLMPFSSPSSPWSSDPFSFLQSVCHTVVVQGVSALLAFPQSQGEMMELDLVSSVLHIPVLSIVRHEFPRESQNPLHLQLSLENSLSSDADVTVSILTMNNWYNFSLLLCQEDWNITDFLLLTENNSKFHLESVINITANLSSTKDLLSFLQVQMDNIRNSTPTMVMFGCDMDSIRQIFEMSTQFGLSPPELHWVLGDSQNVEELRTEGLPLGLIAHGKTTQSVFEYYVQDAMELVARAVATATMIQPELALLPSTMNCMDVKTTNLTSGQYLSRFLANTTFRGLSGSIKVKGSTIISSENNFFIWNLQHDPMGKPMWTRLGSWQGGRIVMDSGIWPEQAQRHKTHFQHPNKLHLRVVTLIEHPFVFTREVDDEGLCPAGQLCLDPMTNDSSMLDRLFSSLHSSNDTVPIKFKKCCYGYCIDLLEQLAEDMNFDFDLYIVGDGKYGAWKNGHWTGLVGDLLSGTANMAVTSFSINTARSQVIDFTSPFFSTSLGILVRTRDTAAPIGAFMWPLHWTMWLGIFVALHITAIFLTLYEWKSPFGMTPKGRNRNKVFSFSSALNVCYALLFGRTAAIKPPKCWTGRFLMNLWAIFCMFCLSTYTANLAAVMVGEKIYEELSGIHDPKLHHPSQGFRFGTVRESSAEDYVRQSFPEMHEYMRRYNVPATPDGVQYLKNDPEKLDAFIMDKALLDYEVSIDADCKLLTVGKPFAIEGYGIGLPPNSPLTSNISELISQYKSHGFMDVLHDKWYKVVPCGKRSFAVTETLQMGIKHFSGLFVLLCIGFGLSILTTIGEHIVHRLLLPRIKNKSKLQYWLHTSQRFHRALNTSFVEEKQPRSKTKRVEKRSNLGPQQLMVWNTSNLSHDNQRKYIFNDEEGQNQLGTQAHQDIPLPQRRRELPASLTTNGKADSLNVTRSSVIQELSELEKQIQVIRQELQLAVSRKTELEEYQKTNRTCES

In the case of `CCc1ccccc1-c1cccc2[nH]c(C(=O)NC[C@@H](N)C(=O)O)cc12` [AICP, (R)-2-Amino-3-(4-(2-ethylphenyl)-1H-indole-2-carboxamido)propanoic acid], the “Rmax at GluN1/2A” value in the assay on GluN1/2A (setting [2]) is on record as 100%. Also, the EC50 with GluN1/2A (read-out: EC50 at GluN1/2A, full agonism) was 66 nM; in the assay on GluN1/2B (read-out: EC50 at GluN1/2B, partial agonist) it was 25 nM; in the assay with GluN1/2C (read-out: EC50 at GluN1/2C, superagonism), 1.7 nM; with GluN1/2D (read-out: EC50 at GluN1/2D, partial agonist) it was 25 nM. Further, in the assay on GluN1/2B (setting [2]), the “Rmax at GluN1/2B” value is given as 10%. The “Rmax at GluN1/2C” value in the assay on GluN1/2C (setting [2]) is recorded as 353%. The “Rmax at GluN1/2D” value with GluN1/2D (setting [2]) was 27%.
For `N[C@H](CNC(=O)c1ccc(-c2ccccc2C(F)(F)F)o1)C(=O)O` [Compound 8d, (R)-2-Amino-3-(5-(2-(trifluoromethyl)phenyl)furan-2-carboxamido)propanoic acid], the “agonist activity at GluN1/2D (in words)” value on GluN1/2D NMDA receptor is “no agonist activity”. In addition, the “agonist activity at GluN1/2B (in words)” value at GluN1/2B NMDA receptor is “no agonist activity”.
The term Ki denotes the equilibrium dissociation constant of an inhibitor or competing ligand from its target. On to `CCc1ccccc1-c1ccc(C(=O)NC[C@@H](N)C(=O)O)o1` [Compound 8h, (R)-2-Amino-3-(5-(2-ethylphenyl)furan-2-carboxamido)propanoic acid], for which, on GluN1/2B NMDA receptor, the “agonist activity at GluN1/2B (in words)” value was “no agonist activity” and the “current response to analog alone at GluN1/2B” value is given as “unable to activate any current responses; also recorded: No responses”. For the same compound, the Ki in assay [1] is approximately 100 nM. Also, at GluN1^FATL/3A receptors, the “activation of current responses at GluN1^FATL/3A” value is “No responses; also recorded: did not activate current responses” and the “inhibition of responses to Gly at GluN1^FATL/3A” value is on record as “did not inhibit responses to Gly”. Also, at GluN1^FATL/3B receptors, the “activation of current responses at GluN1^FATL/3B” value is “No responses; also recorded: did not activate current responses” and the “inhibition of responses to Gly at GluN1^FATL/3B” value is “did not inhibit responses to Gly”.
As to `N[C@H](CNC(=O)c1ccc(-c2ccc(Cl)cc2[N+](=O)[O-])o1)C(=O)O` [Compound 8p, (R)-2-amino-3-(5-(4-chloro-2-nitrophenyl)furan-2-carboxamido)propanoic acid], the “maximal response relative to Gly at GluN1/2A-V783L versus wild type” value on GluN1/2A-V783L is “reduced the maximal response”. For the same compound, the “agonist activity at GluN1/2D (in words)” value on GluN1/2D NMDA receptor was “virtually no agonist activity”. The “agonist activity at GluN1/2A (in words)” value at GluN1/2A NMDA receptor is on record as “virtually no agonist activity”. Also, the “maximal response relative to Gly at GluN1/2B-F784V versus wild type” value on GluN1/2B-F784V is on record as “did not significantly increase the maximal response”. For the same compound, at GluN1/2B NMDA receptor, the “agonist activity at GluN1/2B (in words)” value is reported as “virtually no agonist activity” and the “current response to analog alone at GluN1/2B” value was “unable to activate any current responses; also recorded: No responses”. For the same compound, the inhibitory constant (Ki) in assay [1] is approximately 100 nM. In addition, on GluN1^FATL/3A receptors, the “activation of current responses at GluN1^FATL/3A” value is given as “No responses; also recorded: did not activate current responses” and the “inhibition of responses to Gly at GluN1^FATL/3A” value was “did not inhibit responses to Gly”. Besides, the “maximal response relative to Gly at GluN1/2B-F784L versus wild type” value on GluN1/2B-F784L is “did not significantly increase the maximal response”. Further, on GluN1^FATL/3B receptors, the “activation of current responses at GluN1^FATL/3B” value is listed as “No responses; also recorded: did not activate current responses” and the “inhibition of responses to Gly at GluN1^FATL/3B” value is “did not inhibit responses to Gly”. The “maximal response relative to Gly at GluN1/2A-V783F versus wild type” value on GluN1/2A-V783F is “reduced the maximal response”.

The values are drawn from paper PMC9437973 (Journal of medicinal chemistry, 2021).
